{"source": "patent US20180370922A1", "about": "“ANTI-INFLAMMATORY 6-PHENOXYPYRIMIDINE DERIVATIVES, PROCESS FOR THEIR PREPARATION AND PHARMACEUTICAL COMPOSITION CONTAINING THEM” (priority 2017, published 2018)", "key": {"iNOS mRNA": {"tested_on": "iNOS mRNA", "assay": "iNOS mRNA expression level", "assay_type": "cell-based", "details": "FIG. 5A", "method": "Western blotting was conducted to identify the mechanism of the NO and PGE2 production inhibiting activity of the compound of the present invention. The inhibition of iNOS and COX-2 protein production and mRNA upregulation was tested."}, "TNF-α": {"tested_on": "TNF-α", "assay": "Cytokine production inhibiting activity, TNF-α", "assay_type": "cell-based", "details": "at a concentration of 12 μM, FIG. 6", "method": "(§1) The inhibitory activity for the proinflammatory cytokines TNF-α, IL-1β and IL-6 was tested for the compound of the present invention."}, "[1]": {"tested_on": "LPS-induced PEG2 production", "assay": "Measurement of PEG2 production", "assay_type": "cell-based", "details": "FIG. 3"}, "IL-6": {"tested_on": "IL-6", "assay": "Cytokine production inhibiting activity, IL-6", "assay_type": "cell-based", "details": "at a concentration of 12 μM, FIG. 6", "method": "as §1"}, "[2]": {"tested_on": "LPS-induced NO production in RAW 264.7 macrophages", "assay": "Measurement of nitrite (Griess test) as a measure of NO production", "assay_type": "cell-based, murine", "details": "FIG. 2", "method": "The concentration of nitrite accumulated in the culture medium was measured by the Griess test as a measure of nitric oxide (NO) production. L-NIL was used as the positive control."}}, "data": [{"smiles": "COc1ccc(Oc2nc(Nc3ccc(N4CCOCC4)cc3)ncc2/N=C/c2cc(OC)cc(OC)c2)cc1", "note": "[Example 21, (E)-5-((3,5-dimethoxybenzylidene)amino)-4-(4-methoxyphenoxy)-N-(4-morpholinophenyl)pyrimidin-2-amine]", "values": [{"measurement": "inhibition of LPS-induced upregulation of iNOS mRNA", "setting": "iNOS mRNA", "value": "inhibit LPS-induced upregulation of iNOS mRNA"}, {"measurement": "cell viability (toxicity)", "setting": "RAW 264.7 macrophages", "value": "little toxicity"}, {"measurement": "inhibition of TNF-α production", "setting": "TNF-α", "value": "inhibit the production of TNF-α"}, {"measurement": "inhibition of LPS-induced PEG2 production", "setting": "[1]", "value": "inhibit LPS-induced PEG2 production in a dose-dependent manner"}, {"measurement": "inhibition of IL-6 production", "setting": "IL-6", "value": "inhibit the production of TNF-α and IL-6"}, {"measurement": "inhibition of LPS-induced NO production", "setting": "[2]; RAW 264.7 macrophages, LPS 24 hours, Griess test", "value": "inhibit LPS-induced NO production in a dose-dependent manner"}, {"measurement": "NO inhibitory activity as compared to the positive control L-NIL", "setting": "[2]; relative to L-NIL", "value": 2, "unit": "times"}]}]}
